Test results published in PubChem BioAssay AID449762 (Southern Research Specialized Biocontainment Screening …, 2010).
Records with an inconclusive call do not appear.

Test system: M. tuberculosis H37Rv growth inhibition, 7H9 media
Assay: M. tuberculosis growth inhibition, HTS (AID 449762);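 note: bacterial growth assessed after seven days of incubation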
Conditions: for IC90: measured here: IC90 growth inhibition

| SMILES | IC50 [µM] | IC90 [µM] |
| --- | --- | --- |
| CCc1ccc(Nc2n[n+](C)c(-c3ccncc3)s2)cc1 | 45.3 | 51.3 |
| CCOC(=O)c1c(/N=C/N(C)C)sc(/C=N/Nc2ccccc2)c1-c1ccccc1Cl | 81.8 | > 100 |
| COc1c(C)cc(C(=O)C2CCCN(Cc3ccccn3)C2)cc1C (stereo unspecified) | 5.8 | > 100 |
| O=C1C(c2ccccc2)=[N+]([O-])c2ccccc21 | 95.8 | > 100 |
| CCOC(=O)c1c(CC(C)C)csc1NC(=O)CCl | < 0.2 | 7.5 |
| CN(CCCC1CCCC1)C(=O)CCc1nnc(-c2ccccc2)o1 | 7.31 | 20.1 |
| c1ccc(-c2nccc(-c3ccc(-n4cnc5ccccc54)cc3)n2)nc1 | 11 | 16.5 |
| CCSc1ccc2c(c1)N(CCCN1CCN(C)CC1)c1ccccc1S2 | 19.1 | 26.5 |
| Cc1ccc(C(=O)/C=C/C(=O)c2ccc(C)cc2)cc1 | 2.05 | 7.63 |
| Cc1ccc(NC(=S)N(CCCN2CCCC2)Cc2cccn2Cc2ccc(Cl)cc2)cc1C | 86 | > 100 |
| CCc1ccc(NC(=O)CSc2nc3n[nH]c(C)c3c(=N)n2-c2cccc(OC)c2)cc1 | 13.2 | 37.1 |
| O=C(Nc1nc2ccccc2[nH]1)C12CC3CC(CC(C3)C1)C2 | 10.3 | 34.5 |
| O=C(c1ccccc1)c1ccc(OCCOCCN2CCN(Cc3ccccc3)CC2)cc1 | 23.7 | 37.5 |
| O=C(CCl)NN=C(c1ccccc1)c1ccccc1 | 0.52 | 1.89 |
| O=C(Nc1cccc(-c2nc3ccccc3s2)c1)c1cc(-n2cnnc2)ccc1Cl | 11.6 | 13.1 |
| O=C(c1ccc(CNc2c(N3CCCC3)c(=O)c2=O)cc1)N1CC=C(c2ccccc2)CC1 | 0.76 | 0.87 |
| CC(C)C(=O)Nc1cccc(-c2nc3ccccc3c(=O)o2)c1 | 44.3 | > 100 |
| CCOc1cc(-c2c(C#N)c(=O)[nH]c3c2c(C)nn3-c2ccc(F)cc2)ccc1O | 1.21 | 4.98 |
| O=C(NC(=S)Nc1ccc(N2CCCCC2)c(Cl)c1)c1cccs1 | 20.2 | 27.1 |
| COCCCN=C1NN=C(c2cc(C)n(Cc3ccco3)c2C)CS1 | 60.9 | 87.4 |
| CC(C)c1ccc2[nH]c(O)c(N=NC(=O)c3ccc(CSc4nncn4C)cc3)c2c1 |  | > 100 |
| CC(C)C(=O)N1CCC2(CC1)Oc1ccc(Cl)cc1C(=O)C21CC(c2ccccc2)=NO1 (stereo unspecified) | 67.8 | > 100 |

| SMILES | IC50 [µM] | IC90 [µM] |
| --- | --- | --- |
| COc1ccc(CN2CCN(C(c3ccc(F)cc3)c3ccc(F)cc3)CC2)c(OC)c1OC | 23.3 | 26.3 |
| COc1ccc(C(=O)C2CCCN(C3CSCCSC3)C2)c(C)c1 (stereo unspecified) | 23.1 | 26.4 |
| CCc1ccc(-c2cc(C)no2)cc1S(=O)(=O)NCCCN1CCN(c2ccccc2)CC1 | 34.7 | 44.7 |
| CN1CCN(c2ccc(S(=O)(=O)N3CCCCC3)cc2NC(=O)/C=C/c2ccc(Cl)c([N+](=O)[O-])c2)CC1 | 30.4 | 38.7 |
| CCOC(=O)CSc1ncnc2c1sc1nc(N3CCOCC3)c3c(c12)CCCC3 | 23.3 | 26.2 |
| CCOC(=O)CSc1cc(=O)n(C)c2cc(Cl)ccc12 | < 0.2 | 73.9 |
| c1ccc(CCNc2ncnc3c2cnn3-c2ccccc2)cc1 | 22.1 | > 50 |
| O=[N+]([O-])c1ccc(-n2cnc3ccccc32)c([N+](=O)[O-])c1 | 1.61 | 5.96 |
| O=C(NC(=S)Nc1cccc2cccnc12)c1ccccc1 | 14.7 | > 100 |
| O=[N+]([O-])c1cc([N+](=O)[O-])c2c(=Nc3ccccc3)n(-c3ccccc3)n(O)c2c1 | 6.35 | 9.25 |
| CCCCn1nc(C(=O)N[C@@H](CCSC)c2nc3ccccc3[nH]2)c2ccccc2c1=O | 53 | 78.5 |
| Cc1ccc(C)c(N/C(N)=N/c2nc(C)cc(C)n2)c1 | 5.87 | 6.72 |
| Cc1cc(NC(=O)CCl)no1 | 1.31 | 3.6 |
| CCCOc1ccc(C(=O)NC(=S)NCc2cccnc2)cc1 | 21.2 | 28 |
| CN(C)C/C=C/C(=O)Nc1cccc(-c2c[nH]c3ncnc(Oc4ccc(NC(=O)CC(=O)Nc5ccc(F)cc5)cc4F)c23)c1 | 7.38 | 14.7 |
| Cc1ccc(NC(=O)Cc2ccc(-c3ccccc3)cc2)nc1 | 25 | 61.3 |
| Cc1ccc(OCCCCNC2CCCC(C)C2C)c(C)c1 (stereo unspecified) | 21.8 | 24.2 |
| Cc1cccc(NC(=O)c2nc[nH]c2C(=O)N[C@H](C)c2ccccc2)c1 | 3.63 | > 100 |
| COc1ccccc1/C=N/NC(=O)NC12CC3CC(CC(C3)C1)C2 |  | > 100 |
| CCC(C)c1ccc2oc(-c3ccc(NC(=O)c4ncn[nH]4)cc3)nc2c1 (stereo unspecified) | 1.59 | 7.52 |
| O=C1NCC(O)=C1C=Nc1ccccc1O | 5.93 | 6.49 |
| CCOC(=O)C(C)Oc1ccc(OCc2ccccc2)cc1 (stereo unspecified) | 4.2 | 10.9 |

| SMILES | IC50 [µM] | IC90 [µM] |
| --- | --- | --- |
| O=c1c(C=NCCN2CCNCC2)c(O)n(C2CCCCC2)c(=O)n1C1CCCCC1 | 21 | 28.5 |
| O=C(CCl)Nc1cccn2ncnc12 | 1.38 | 2.89 |
| CCOC(=O)c1ccc(N=Cc2nc3ccccc3n2C)cc1 | 63.5 | > 100 |
| CCOC(=O)c1c(NC(=O)C(NCCN(C)C)c2ccccc2)sc2c1CCCC2 (stereo unspecified) | 4.75 | 10.1 |
| CCOC(=O)Cn1nc(-c2ccccc2)nc1-c1ccccc1 | 5.84 | 22.7 |
| C/C(CC(=O)Nc1ccc(C)c(Cl)c1)=N\NC(=O)Cc1cnc(N)s1 |  | > 100 |
| O=C1Nc2ccccc2/C1=N\N=C\C1=C(N2CCOCC2)C(=C\c2ccccc2)/CC1 | 33.4 | 59.8 |
| C=CCN(C(=O)CSc1nc2c(sc3ccccc32)c(=O)n1CCN(CC)CC)c1ccccc1 | 29 | 36 |
| COc1cc(NC(=O)c2cccs2)c(C(=O)OCC(=O)NCc2ccco2)cc1OC | 23.9 | > 100 |
| CCc1ccc(/C=C2/C(=O)N(C)C(=S)N2CC(=O)OC)s1 | 1.46 | 5.75 |
| CSCCC(=O)N1CCCC(CNC(=O)c2ccc(-c3ccccc3)cc2)C1 (stereo unspecified) | 39.1 | 87.8 |
| CN1CCN(Cn2cc(/C=C/C(=O)c3ccccc3)c3ccccc32)CC1 | 7.95 | 26.3 |
| COc1ccc(C(C)=O)cc1COC(=O)c1ccc2ccccc2n1 | 27.8 | > 100 |
| O=[N+]([O-])c1cc(-c2ccc(/C=N\n3cnnc3)o2)cc([N+](=O)[O-])c1 | 0.65 | 1.86 |
| Cc1ccc(-n2nc3c(N4CCC(C(=O)NCc5ccccc5C)CC4)nnc(C)c3c2C)cc1 | 46.9 | 69 |
| CN(C)S(=O)(=O)c1cccc(NC(=O)CSc2cccc3cccnc23)c1 | 58.6 | 65.1 |
| C=CCOC(=O)COc1ccc2c(C)c(CC)c(=O)oc2c1 | 1.08 | 2.21 |
| Cc1nn(-c2ccccc2)c2c1C(c1ccc([N+](=O)[O-])cc1)N1C(=N2)C(=O)Nc2ccccc21 (stereo unspecified) | 41.4 | > 100 |
| Cc1ccc(C(=O)N/C(=C/c2ccc(-c3cc(C(F)(F)F)ccc3Cl)o2)C(=O)NCc2cccnc2)cc1 | 37.8 | > 100 |
| Cc1nc2ccccc2c2nc3ccccc3n12 | 33.8 | 55.2 |
| CC1(c2ccc(Cl)c(Cl)c2)NC(=S)N2C1NC(=S)N2c1ccccc1 (stereo unspecified) |  | > 100 |
| O=C(c1ccc(Br)cc1)C(CN1CCOCC1)c1ccccc1 (stereo unspecified) | 4.73 | 9.41 |

| SMILES | IC50 [µM] | IC90 [µM] |
| --- | --- | --- |
| Clc1ccc2c(c1)CCc1cccnc1C2=C1CCNCC1 | 26.8 | 31.3 |
| CCOc1ccc(N2CC(=O)Nc3ccccc3NCC2=O)cc1 | 52.7 | 78.2 |
| CCOc1ccc(/C=C/C2=Cc3c(sc(NC(=O)CSc4n[nH]c(N)n4)c3C#N)C(C)(C)C2)cc1 |  | > 100 |
| CCC(=O)c1ccc(OCC(O)CN2CCN(c3cccc(C(F)(F)F)c3)CC2)cc1 (stereo unspecified) | 19.9 | 28 |
| COc1cccc(C2C3=C(N=c4s/c(=C\c5cccc(O)c5)c(=O)n42)c2ccccc2CC3)c1OC (stereo unspecified) | 23.3 | 27.1 |
| CCOc1cc(/C=N/Nc2nc(Nc3ccccc3)nc(N3CCCCC3)n2)ccc1OCC(=O)O | 7.04 | 23.4 |
| COc1ccc(-c2cc(-c3ccccc3)c(C#N)c(S(C)=O)n2)cc1 (stereo unspecified) | 15.1 | 29 |
| Fc1nc(F)c(F)c(NCCCNc2c(F)c(F)nc(F)c2F)c1F | 37.7 | > 100 |
| CCN(CC)c1ccc2c(Cl)c(Br)c(=O)oc2c1 | 13.7 | 43.4 |
| Cn1ccnc1C(=O)C1CCCN(Cc2cn[nH]c2-c2ccc(-c3ccccc3)cc2)C1 (stereo unspecified) | 76 | 91.7 |
| CCOC(=O)CNC(=O)c1sc2ncnc(N3CCc4ccccc4C3)c2c1C | 53.2 | > 100 |
| CC1CN(c2ccc([N+](=O)[O-])c(NCCOc3ccc(Cl)cc3)c2)CC(C)N1 (stereo unspecified) | 9.19 | 12.8 |
| O=S(=O)(Nc1ccn(-c2ccccc2)n1)c1ccc(Br)cc1 | 95.4 | > 100 |
| Cc1ccn2nc(S(=O)(=O)Nc3c(F)cccc3F)nc2n1 | 6.95 | 9.3 |
| CC(=O)c1ccc(N2CCC(c3cc(-c4ccc(Cl)cc4Cl)n[nH]3)CC2)c([N+](=O)[O-])c1 | 18.2 | 26.1 |
| COc1ccc(Cc2nnc(SCC(=O)N(c3ccccc3)C(C)C)n(N)c2=O)cc1 | 40.9 | 74.4 |
| Cc1nc2ccc(NC(=O)c3ccc([N+](=O)[O-])cc3[N+](=O)[O-])cc2s1 | 1.62 | 16.7 |
| CCOC(=O)c1cc(-c2ccccc2)nc2c1c(C)nn2-c1ccccn1 | 2.97 | 27.2 |
| COC(=O)c1cc(=O)n(-c2ccc(F)cc2)c(=Nc2ccc(F)cc2)s1 | < 0.2 | 1.86 |
| CCC(=O)Oc1ccc(C(=O)Nc2ccc3c(c2)C(=O)N(C2CCCCC2)C3=O)cc1 | 21.2 | 44.5 |
| Cc1cc2nc(C3CCN(CC4COc5ccccc5O4)CC3)[nH]c2cc1C (stereo unspecified) | 15.5 | 25.4 |
| C/C(CC(=O)Nc1ccc(Cl)cc1C(F)(F)F)=N\NC(N)=S | 16 | 19.5 |
